Patent US10941114B2, “Small molecule lipid II inhibitors” (University Of Maryland, Baltimore, priority 2015, dated 2021)
Where a name gives a salt, the structure may show the parent alone.

System: Staphylococcus aureus
Experiment: Antibacterial activity assay (MIC, broth dilution)
Format: cell-based
Parameters: S. aureus Killing / Bacterial Killing S. aureus: unit not given here
Settings: for S. aureus Killing: anti-bacterial activity (MIC), strain not stated; for MIC SA USA300: Staphylococcus aureus USA 300 strain, broth microdilution

| Compound | S. aureus Killing | MIC SA USA300 |
| --- | --- | --- |
| Cc1cc(/C=C/C=C/c2ccc(N(C)C)cc2)cc(C)[o+]1 [4-((1E,3E)-4-(4-(dimethylamino)phenyl)buta-1,3-dien-1-yl)-2,6-dimethylpyrylium boron tetrafluoride salt] | 32 |  |
| Cc1ccc(-c2cc(/C=C/c3cn(C)c4ccccc34)[o+]c(-c3ccc(C)c(C)c3)c2)cc1C [(E)-2,4-bis(3,4-dimethylphenyl)-6-(2-(1-methyl-1H-indol-3-yl)vinyl)pyrylium boron tetrafluoride salt] | 1 |  |
| CC(C)(C)c1ccc(-c2cc(/C=C/c3cc4c5c(c3)CCCN5CCC4)[o+]c(-c3ccc(C(C)(C)C)cc3)c2)cc1 [(E)-2,4-bis(4-(tert-butyl)phenyl)-6-(2-(1,2,3,5,6,7-hexahydropyrido [3,2,1-ij]quinolin-9-yl)vinyl)pyrylium boron tetrafluoride salt] | 32 |  |
| Cn1cc(/C=C/c2cc(-c3ccc(C(C)(C)C)cc3)cc(-c3ccc(C(C)(C)C)cc3)[o+]2)c2ccccc21 [(E)-2,4-bis(4-(tert-butyl)phenyl)-6-(2-(1-methyl-1H-indol-3-yl)vinyl)pyrylium boron tetrafluoride salt] | 16 |  |
| CN(C)c1ccc(/C=C/c2cc(-c3ccc(C(C)(C)C)cc3)cc(-c3ccc(C(C)(C)C)cc3)[o+]2)cc1 [(E)-2,4-bis(4-(tert-butyl)phenyl)-6-(4-(dimethylamino)styryl)pyrylium boron tetrafluoride salt] | 8 |  |
| Cn1cc(/C=C/c2cc(-c3ccc(Br)cc3)cc(-c3ccc(Br)cc3)[o+]2)c2ccccc21 [(E)-2,4-bis(4-bromophenyl)-6-(2-(1-methyl-1H-indol-3-yl)vinyl)pyrylium boron tetrafluoride salt] | 64 |  |
| Clc1ccc(-c2cc(/C=C/c3cc4c5c(c3)CCCN5CCC4)[o+]c(-c3ccc(Cl)cc3)c2)cc1 [(E)-2,4-bis(4-chlorophenyl)-6-(2-(1,2,3,5,6,7-hexahydropyrido [3,2,1-ij]quinolin-9-yl)vinyl)pyrylium boron tetrafluoride salt] | 1 |  |
| Cn1cc(/C=C/c2cc(-c3ccc(Cl)cc3)cc(-c3ccc(Cl)cc3)[o+]2)c2ccccc21 [(E)-2,4-bis(4-chlorophenyl)-6-(2-(1-methyl-1H-indol-3-yl)vinyl)pyrylium boron tetrafluoride salt] | 64 |  |
| Brc1ccc(-c2cc(/C=C/c3cc4c5c(c3)CCCN5CCC4)[o+]c(-c3ccc(Br)cc3)c2)cc1 [(E)-2,4-bis(4~ bromophenyl)-6-(2-(1,2,3,5,6,7-hexahydropyrido [3,2,1-ij]quinolin-9-yl)vinyl)pyrylium boron tetrafluoride salt] | 4 |  |
| Cc1ccc(-c2cc(/C=C/c3cc4c5c(c3)CCCN5CCC4)[o+]c(-c3ccc(C)cc3)c2)cc1 [(E)-2-(2-(1,2,3,5,6,7-hexahydropyrido [3,2,1-ij]quinolin-9-yl)vinyl)-4,6-di-p-tolylpyrylium boron tetrafluoride salt] | 1 |  |
| C(=C\c1cc(-c2ccccc2)cc(-c2ccccc2)[o+]1)/c1cc2c3c(c1)CCCN3CCC2 [(E)-2-(2-(1,2,3,5,6,7-hexahydropyrido [3,2,1-ij]quinolin-9-yl)vinyl)-4,6-diphenylpyrylium boron tetrafluoride salt] | 1 |  |
| Cc1ccc(-c2cc(/C=C/c3cn(C)c4ccccc34)[o+]c(-c3ccc(C)cc3)c2)cc1 [(E)-2-(2-(1-methyl-1H-indol-3-yl)vinyl)-4,6-di-p-tolylpyrylium boron tetrafluoride salt] | 0.5 |  |
| Cn1cc(/C=C/c2cc(-c3ccccc3)cc(-c3ccccc3)[o+]2)c2ccccc21 [(E)-2-(2-(1-methyl-1H-indol-3-yl)vinyl)-4,6-diphenylpyrylium boron tetrafluoride salt] | 0.5 |  |
| Cc1ccc(-c2cc(/C=C/c3c[nH]c4ccccc34)[o+]c(-c3ccc(C)c(C)c3)c2)cc1C [(E)-2-(2-(1H-indol-3-yl)vinyl)-4,6-bis(3,4-dimethylphenyl) pyrylium boron tetrafluoride salt] | 4 |  |
| Brc1ccc(-c2cc(/C=C/c3c[nH]c4ccccc34)[o+]c(-c3ccc(Br)cc3)c2)cc1 [(E)-2-(2-(1H-indol-3-yl)vinyl)-4,6-bis(4-bromophenyl) pyrylium boron tetrafluoride salt] | >64 |  |
| Clc1ccc(-c2cc(/C=C/c3c[nH]c4ccccc34)[o+]c(-c3ccc(Cl)cc3)c2)cc1 [(E)-2-(2-(1H-indol-3-yl)vinyl)-4,6-bis(4-chlorophenyl) pyrylium boron tetrafluoride salt] | 16 |  |
| CCc1ccc(-c2cc(/C=C/c3c[nH]c4ccccc34)[o+]c(-c3ccc(CC)cc3)c2)cc1 [(E)-2-(2-(1H-indol-3-yl)vinyl)-4,6-bis(4-ethylphenyl) pyrylium boron tetrafluoride salt] | 4 |  |
| Cc1ccc(-c2cc(/C=C/c3c[nH]c4ccccc34)[o+]c(-c3ccc(C)cc3)c2)cc1 [(E)-2-(2-(1H-indol-3-yl)vinyl)-4,6-di-p-tolylpyiylium boron tetrafluoride salt] | 4 |  |

| Compound | S. aureus Killing | MIC SA USA300 |
| --- | --- | --- |
| C(=C\c1c[nH]c2ccccc12)/c1cc(-c2ccccc2)cc(-c2ccccc2)[o+]1 [(E)-2-(2-(1H-indol-3-yl)vinyl)-4,6-diphenylpyrylium boron tetrafluoiide salt] | 1 |  |
| CC(C)(C)c1ccc(-c2cc(/C=C/c3c[nH]c4ccccc34)[o+]c(-c3ccc(C(C)(C)C)cc3)c2)cc1 [(E)-2-(2-(1H-mdol-3-yl)vinyl)-4,6-bis(4-(tert-butyl)phenyl) pyrylium boron tetrafluoride salt] | 32 |  |
| Cc1ccc(-c2cc(/C=C/c3ccc(N(C)C)cc3)[o+]c(-c3ccc(C)c(C)c3)c2)cc1C [(E)-2-(4-(dimethylamino)styryl)-4,6-bis(3,4-dimethylphenyl) pyrylium boron tetrafluoride salt] | 2 |  |
| CCc1ccc(-c2cc(/C=C/c3ccc(N(C)C)cc3)[o+]c(-c3ccc(CC)cc3)c2)cc1 [(E)-2-(4-(dimethylamino)styryl)-4,6-bis(4-ethylphenyl) pyryliurn boron tetrafluoride salt] | 1 |  |
| Cc1ccc(-c2cc(/C=C/c3ccc(N(C)C)cc3)[o+]c(-c3ccc(C)cc3)c2)cc1 [(E)-2-(4-(dimethylamino)styryl)-4,6-di-p-tolylpyrylium boron tetrafluoride salt] | 0.5 |  |
| CN(C)c1ccc(/C=C/c2cc(-c3ccccc3)cc(-c3ccccc3)[o+]2)cc1 [(E)-2-(4-(dimethylamino)styryl)-4,6-diphenylpyrylium boron tetrafluoride salt] | 2 |  |
| CCc1ccc(-c2cc(/C=C/c3cn(C)c4ccccc34)[o+]c(-c3ccc(CC)cc3)c2)cc1 [(E)-2.4-bis(4-ethylphenyl)-6-(2-(1-methyl-1H-indol-3-yl)vinyl)pyrylium boron tetrafiuoride salt] | 1 |  |
| Cc1cc(/C=C/c2ccc(N(C)C)cc2)cc(C)[o+]1 [(E)-4-(4-(dimethylamino)styryl)-2,6-dimethvlpyrylium boron tetrafluoride salt] | 16 |  |
| CN(C)c1ccc(/C=C/c2cc(-c3ccccc3)cc(-c3ccc(F)cc3)[n+]2C)cc1.[I-] [Compound 3jc07-1, (E)-2-(4-(dimethylamino)styryl)-6-(4-fluorophenyl)-1-methyl-4-phenylpyridin-1-ium iodide salt] |  | 4 µg/mL |
| CN(CCC#N)c1ccc(/C=C/c2cc(-c3ccccc3)cc(-c3ccc(F)cc3)[n+]2C)cc1.[I-] [Compound 3jc07-2, (E)-2-(4-((2-cyanoethyl)(methyl)amino)styryl)-6-(4-fluorophenyl)-1-methyl-4-phenylpyridin-1-ium iodide salt] |  | 32 µg/mL |
| CN(C)c1ccc(/C=C/c2cc(-c3ccccc3)cc(-c3ccc(Br)cc3)[n+]2C)cc1.[I-] [Compound 3jc07-3, (E)-2-(4-bromophenyl)-6-(4-(dimethylamino)styryl)-1-methyl-4-phenylpyridin-1-ium iodide salt] |  | 2 µg/mL |
| CN(CCC#N)c1ccc(/C=C/c2cc(-c3ccccc3)cc(-c3ccc(Br)cc3)[n+]2C)cc1.[I-] [Compound 3jc07-4, (E)-2-(4-bromophenyl)-6-(4-((2-cyanoethyl)(methyl)amino)styryl)-1-methyl-4-phenylpyridin-1-ium iodide salt] |  | 32 µg/mL |
| COc1ccc(-c2cc(/C=C/c3ccc(N(C)C)cc3)[n+](C)c(-c3ccc(F)cc3)c2)cc1.[I-] [Compound 3jc07-5, (E)-2-(4-(dimethylamino)styryl)-6-(4-fluorophenyl)-4-(4-methoxyphenyl)-1-methylpyridin-1-ium iodide salt] |  | 1 µg/mL |
| COc1ccc(-c2cc(/C=C/c3ccc(N(C)CCC#N)cc3)[n+](C)c(-c3ccc(F)cc3)c2)cc1.[I-] [Compound 3jc07-6, (E)-2-(4-((2-cyanoethyl)(methyl)amino)styryl)-6-(4-fluorophenyl)-4-(4-methoxyphenyl)-1-methylpyridin-1-ium iodide salt] |  | 16 µg/mL |
| COc1ccc(-c2cc(/C=C/c3ccc(N(C)C)cc3)[n+](C)c(-c3ccc(Br)cc3)c2)cc1.[I-] [Compound 3jc07-7, (E)-2-(4-bromophenyl)-6-(4-(dimethylamino)styryl)-4-(4-methoxyphenyl)-1-methylpyridin-1-ium iodide salt] |  | 1 µg/mL |
| COc1ccc(-c2cc(/C=C/c3ccc(N(C)CCC#N)cc3)[n+](C)c(-c3ccc(Br)cc3)c2)cc1.[I-] [Compound 3jc07-8] |  | 16 µg/mL |
| CN(C)c1ccc(/C=C/c2cc(-c3ccc(I)cc3)cc(-c3ccc(F)cc3)[n+]2C)cc1.[I-] [Compound 3jc07-9, (E)-2-(4-(dimethylamino)styryl)-6-(4-fluorophenyl)-4-(4-iodophenyl)-1-methylpyridin-1-ium iodide salt] |  | 4 µg/mL |
